Test results taken from the RepoRT retention time repository (doi:10.1021/acs.analchem.1c00972).

Columns and labels:
[1] = RP, Waters ACQUITY UPLC BEH C18, 100 × 1 mm, 1.7 µm, 50 °C, 0.3 mL/min, estimated dead time 0.17 min; A: water + 0.1% formic acid + 20 mM ammonium formate; B: methanol + 0.1% formic acid + 20 mM ammonium formate; gradient (min/%B) 0/0 15/100 21/100 22/0 30/0; conditions: stereoisomer not certain
[2] = RP, Waters ACQUITY UPLC BEH C18, 100 × 1 mm, 1.7 µm, 50 °C, 0.3 mL/min, estimated dead time 0.17 min; A: water + 10 mM ammonium bicarbonate; B: 10% water + 90% methanol + 10 mM ammonium bicarbonate; gradient (min/%B) 0/0 15/100 21/100 22/0 30/0; conditions: stereoisomer not certain

SMILES	LC retention time [1] [min]	LC retention time [2] [min]
CC(C)(C#N)c1cc(Cn2cncn2)cc(C(C)(C)C#N)c1 [Anastrozole]	11.3	11.5
NCC(O)COc1ccc(CC(N)=O)cc1 (configuration not stated) [Atenolol-desisopropyl]	12.3	5.61
CC(C)NCC(O)COc1ccc(CC(N)=O)cc1 (configuration not stated) [Atenolol]	6.38	8.56
COP(=O)(OC)SCn1c(=O)oc2cc(Cl)cnc21 [Azamethiphos]	11.4	11.6
CN1CCCC(n2nc(Cc3ccc(Cl)cc3)c3ccccc3c2=O)CC1 (configuration not stated) [Azelastine]	12.9	16.3
COP(=S)(OC)SCn1nnc2ccccc2c1=O [Azinphos methyl]	13.4	13.6
CCC1OC(=O)C(C)C(OC2CC(C)(OC)C(O)C(C)O2)C(C)C(OC2OC(C)CC(N(C)C)C2O)C(C)(O)CC(C)CN(C)C(C)C(O)C1(C)O (configuration not stated) [Azithromycin]	11.2	17.4
CCOC(=O)CCN(SN(C)C(=O)Oc1cccc2c1OC(C)(C)C2)C(C)C [Benfuracarb]	16.6	17
O=C(Nc1ccccc1)c1ccccc1I [Benodanil]	12.7	12.9
CC(COc1ccccc1Cc1ccccc1)N1CCCCC1 (configuration not stated) [Benproperine]	13.1	18.2
CCOC(=O)c1ccc(N)cc1 [Benzocain]	10.5	10.8
COc1ccc(C(=O)c2ccccc2)c(O)c1 [Benzophenone-3]	15	15.3
CN1C2CCC1C(C(=O)O)C(OC(=O)c1ccccc1)C2 (configuration not stated) [Benzoylecgonin]	11.5	11.6
COc1ccc(-c2ccccc2)cc1NNC(=O)OC(C)C [Bifenazate]	14.7	15
c1ccc(-c2ccc(C(c3ccccc3)n3ccnc3)cc2)cc1 (configuration not stated) [Bifonazol]	13.9	16.7
CCCCC(CC)COP(=O)(O)OCC(CC)CCCC (configuration not stated) [Bis(2-ethylhexyl)phosphate]	17.2	17.2
O=S(=O)(c1ccc(Cl)cc1)c1ccc(Cl)cc1 [Bis(4-chlorophenyl)sulfone]	14.9	12
CC(C)NCC(O)COc1ccc(COCCOC(C)C)cc1 (configuration not stated) [Bisoprolol]	11.1	13.8
CC(C)NCC(O)COc1ccc(C(=O)O)cc1 (configuration not stated) [Bisoprolol_M3]	6.96	10.4
Oc1ccc(C(c2ccc(O)cc2)(C(F)(F)F)C(F)(F)F)cc1 [Bisphenol AF]	15.9	14.7
COc1ccccc1Oc1c(NS(=O)(=O)c2ccc(C(C)(C)C)cc2)nc(-c2ncccn2)nc1OCCO [Bosentan]	14.9	13.4
COc1cc2c(cc1OC)C13CCN4CC5=CCOC6CC(=O)N2C1C6C5CC43 (configuration not stated) [Brucine]	8.1	12.1

SMILES	LC retention time [1] [min]	LC retention time [2] [min]
CCCC1OC2CC3C4CCC5=CC(=O)C=CC5(C)C4C(O)CC3(C)C2(C(=O)CO)O1 (configuration not stated) [Budesonide]	14.8	15.1
CC(NC(C)(C)C)C(=O)c1cccc(Cl)c1 (configuration not stated) [Bupropion]	10.5	15.6
C=CCOC(=O)C(C)(C)OC(=O)c1cc(-n2c(=O)cc(C(F)(F)F)n(C)c2=O)ccc1Cl [Butafenacil]	14.8	15.1
CC12CCC(=O)C=C1C=CC1C2CCC2(C)C1CCC21CCC(=O)O1 (configuration not stated) [Canrenone]	14.2	14.5
NC(=O)N1c2ccccc2C2OC2c2ccccc21 (configuration not stated) [Carbamazepine-10,11-epoxide]	10.9	11
CNC(=O)Oc1cccc2c1OC(C)(C)C2 [Carbofuran]	11.8	12
CCOC(=O)C(Cl)Cc1cc(-n2nc(C)n(C(F)F)c2=O)c(F)cc1Cl (configuration not stated) [Carfentrazone-ethyl]	15.4	15.8
CC1C(C)(C)C2=C(C(=O)CCC2)C1(C)C (configuration not stated) [Cashmeran]	16.2	16.6
CC(=O)c1cc(C(C)(C)C)cc2c1CCC2(C)C [Celestolide]	17.5	17.9
O=C(O)COCCN1CCN(C(c2ccccc2)c2ccc(Cl)cc2)CC1 (configuration not stated) [Cetirizine]	13.6	14.8
CC=C(C)C(=O)OC1CCC2(C)C3CCC4C5(O)CC(O)C6(O)C(CN7CC(C)CCC7C6(C)O)C5(O)CC42OC13O (configuration not stated) [Cevadine]	12.6	16.4
CCOP(=O)(OCC)OC(=CCl)c1ccc(Cl)cc1Cl [Chlorfenvinphos]	15.8	16.1
NC(=NCCCCCCN=C(N)N=C(N)Nc1ccc(Cl)cc1)N=C(N)Nc1ccc(Cl)cc1 [Chlorohexidine]	12.2	6.38
COc1nc(C)nc(NC(=O)NS(=O)(=O)c2ccccc2Cl)n1 [Chlorsulfuron]	12.3	9.11
O=C(O)c1cn(C2CC2)c2cc(N3CCNCC3)c(F)cc2c1=O [Ciprofloxacin]	8.34	7.67
CCC1OC(=O)C(C)C(OC2CC(C)(OC)C(O)C(C)O2)C(C)C(OC2OC(C)CC(N(C)C)C2O)C(C)(OC)CC(C)C(=O)C(C)C(O)C1(C)O (configuration not stated) [Clarithromycin]	14.1	16.6
CC(C)(C)C(=O)C(Oc1ccc(Cl)cc1)n1ccnc1 (configuration not stated) [Climbazole]	13.2	15.1
CC1CC2C3CCC4=CC(=O)C=CC4(C)C3(F)C(O)CC2(C)C1(O)C(=O)CCl (configuration not stated) [Clobetasol]	14.1	14.4
Clc1ccccc1-c1nnc(-c2ccccc2Cl)nn1 [Clofentezine (Apolo)]	15.9	16.3
Clc1cccc(Cl)c1NC1=NCCN1 [Clonidine]	7.02	10.2
COC(=O)C(c1ccccc1Cl)N1CCc2sccc2C1 (configuration not stated) [Clopidogrel]	15.4	16.5
O=C(O)c1nc(Cl)ccc1Cl [Clopyralid]	6.09	3.37

SMILES	LC retention time [1] [min]	LC retention time [2] [min]
CCCCCC(C)OC(=O)COc1ccc(Cl)c2cccnc12 (configuration not stated) [Cloquintocet-mexyl]	16.9	17.3
Clc1ccccc1C(c1ccccc1)(c1ccccc1)n1ccnc1 [Clotrimazole]	13.9	16.7
CN1CCN(C2=Nc3cc(Cl)ccc3Nc3ccccc32)CC1 [Clozapine]	11.7	15.7
COc1ccc2c3c1OC1C(O)C=CC4C(C2)N(C)CCC341 (configuration not stated) [Codein]	6.77	12.1
COc1cc2c(c(OC)c1OC)-c1ccc(OC)c(=O)cc1C(NC(C)=O)CC2 (configuration not stated) [Colchicine]	11.4	11.6
O=c1ccc2ccccc2o1 [Coumarin]	9.79	9.93
CC(=O)OC(C)(C)C=CC(=O)C(C)(O)C1C(O)CC2(C)C3CC=C4C(C=C(O)C(=O)C4(C)C)C3(C)C(=O)CC12C (configuration not stated) [Cucurbitacin E]	14.4	14.7
Cc1ccc(-c2c(Cl)nc(C#N)n2S(=O)(=O)N(C)C)cc1 [Cyazofamid]	15	15.3
O=C1CCCCCCCCCCC1 [Cyclododecanone]	16.1	16.5
O=C(c1ccccc1)C1CCCCC1 [Cyclohexylphenylketone]	15.5	15.9
O=C(Cc1ccccc1)NC(=NOCC1CC1)c1c(C(F)(F)F)ccc(F)c1F [Cyflufenamid]	16	16.3
CC(C1CC1)C(O)(Cn1cncn1)c1ccc(Cl)cc1 (configuration not stated) [Cyproconazole]	14.5	15
CC(=O)C1(O)CCC2C3C=C(Cl)C4=CC(=O)C5CC5C4(C)C3CCC21C (configuration not stated) [Cyproterone]	14.6	14.9
O=c1cccc2n1CC1CNCC2C1 (configuration not stated) [Cytisin]	2.31	7.53
CNCCCC(C#N)(c1ccc(OC)c(OC)c1)C(C)C (configuration not stated) [D617]	10.8	12.4
O=C1C(O)Oc2ccccc2N1O (configuration not stated) [DIBOA]	7.76	3.05
COc1ccc2c(c1)OC(O)C(=O)N2O (configuration not stated) [DIMBOA]	8.5	4.91
CN(C)S(=O)(=O)Nc1ccccc1 [DMSA]	10.7	10.7
Cc1ccc(NS(=O)(=O)N(C)C)cc1 [DMST]	12	12.1
CC(C)CN(CC(O)C(Cc1ccccc1)NC(=O)OC1COC2OCCC12)S(=O)(=O)c1ccc(N)cc1 (configuration not stated) [Darunavir]	13.1	13.4
Clc1ccc2c(c1)CCc1cccnc1C2=C1CCNCC1 [Desloratadine]	11.9	14.7
CCOC(=O)Nc1cccc(OC(=O)Nc2ccccc2)c1 [Desmedipham]	13.5	13.6
